Test results taken from US20210276960A1, “INHIBITORS OF TISSUE TRANSGLUTAMINASE 2 (TG2) AND USES THEREOF” (Northwestern University, priority 2020, published 2021).

Tests used:
Solubility assay = type: physicochemical; settings: aqueous buffer, kinetic from dmso stock; pH=7.4 PBS buffer, 2% DMSO
Protocol: Solubility was measured in a 384-well plate using a Synergy HTX plate reader. Starting with a 50 mM DMSO stock solution of test compounds, dilutions were made from 1 to 500 μM final concentrations using acetonitrile, keeping the final DMSO concentration at 2%. UV absorption was measured at 254 nm and absorbance versus concentration was plotted to give a standard curve. A DMSO stock of test compound was also diluted with pH=7.4 PBS buffer to give a final concentration of 250 μM containing 2% DMSO. This mixture was stirred on a plate shaker for 1 hr after which it was centrifuged at 2500 rpm for 3 min. 50 μL of the supernatant was removed, transferred to a 384-well plate, and the UV absorbance at 254 nm was measured. Absorbance of the test compound in PBS buffer was analyzed with the standard curve to determine solubility.

SKOV3-GFP cells = assay: In vivo cell attachment to the peritoneum; design: species or system mice; settings: for unattached OC cells recovered from the peritoneal cavity: NSG mice, ip, 10 μg/kg, 2 hours after injection
SKOV3 cells = assay: Wound-healing assay, SKOV3; type: cell-based; settings: 8 μM, 24 hours
Protocol: (§1) Wound Healing was Performed in 12-Well Plates Coated with 1 μg/Ml FN (Sigma, #1141) overnight at 4° C. OC cells were plated at a density of 2×10^5 cells/well in media containing 2% FBS. Under these conditions cells adhered on substrate, but cell proliferation was minimized. After 16 hours, the cell monolayer was scraped in straight line. Cell debris was removed and serum free media containing selected SMIs or control was replenished. For consistency during image acquisition, a reference point was marked close to the scratch mark and the plate was imaged under phase-contrast microscope at 0, 2, 6, 12 and 24 hours. Wound closure was assessed as the distance between the wound edges, calculated and quantified using the Image Pro-Express software. The percentage of wound closure was evaluated using the formula […]. The rate of migration (μm/h) of OC cells into the wound space was evaluated as the distance difference between wound edges at 0 and 24 h, divided by 24. The experiments were performed in duplicates.

OVCAR5 cells = assay: Wound-healing assay, OVCAR5; type: cell-based, human; settings: 8 μM, 24 hours
Protocol: as §1

[1] = test system: OVCAR433 cells adhesion onto LP9 monolayers; assay: Cell adhesion to LP9 mesothelial monolayers, OVCAR433; type: cell-based; settings: at concentrations >10 μM
Protocol: (§2) LP9 mesothelial cells added to clear-bottom 96-well plate at 12,000 cells/well were grown to confluency over 48 hours (h). OC cells were labeled with calcein AM and seeded at a density of 4×10^4 cells to monolayers of mesothelial cells and incubated for 1 h. Non-adherent cells were removed by washing with PBS.

[2] = test system: SKOV3 cells adhesion to FN; assay: Solid phase adhesion assay to FN, SKOV3; type: cell-based; settings: FN 5 μg/mL, FIG. 2E
Protocol: Cells labeled with calcein AM (Life Technologies, #L3224) were seeded at a density of 4×10^4 cells in 96-well plates pre-coated with FN (5 μg/mL, Sigma, #F1141), and blocked using 1% BSA (Sigma, #A9647) in PBS in the presence of selected compounds diluted at the specified concentrations, in serum free media. After 45 minutes, unattached cells were washed using PBS containing 1 mM MgCl2(Sigma, #M8266) and adherent cells were quantified in a SpectraMaxGeminiXS fluorescence plate reader (Molecular Devices, Palo Alto, Calif.) at 530 nm wavelength. Experiments were performed inquadruplicate and repeated at least twice.

[3] = target: T1, His-tagged TG2 / biotinylated FN42 interaction (Homo sapiens, UniProt P21980); assay: ELISA of the TG2-FN interaction; type: binding; settings: 10 μM
T1 construct: made in house
T1 sequence (P21980 1-687): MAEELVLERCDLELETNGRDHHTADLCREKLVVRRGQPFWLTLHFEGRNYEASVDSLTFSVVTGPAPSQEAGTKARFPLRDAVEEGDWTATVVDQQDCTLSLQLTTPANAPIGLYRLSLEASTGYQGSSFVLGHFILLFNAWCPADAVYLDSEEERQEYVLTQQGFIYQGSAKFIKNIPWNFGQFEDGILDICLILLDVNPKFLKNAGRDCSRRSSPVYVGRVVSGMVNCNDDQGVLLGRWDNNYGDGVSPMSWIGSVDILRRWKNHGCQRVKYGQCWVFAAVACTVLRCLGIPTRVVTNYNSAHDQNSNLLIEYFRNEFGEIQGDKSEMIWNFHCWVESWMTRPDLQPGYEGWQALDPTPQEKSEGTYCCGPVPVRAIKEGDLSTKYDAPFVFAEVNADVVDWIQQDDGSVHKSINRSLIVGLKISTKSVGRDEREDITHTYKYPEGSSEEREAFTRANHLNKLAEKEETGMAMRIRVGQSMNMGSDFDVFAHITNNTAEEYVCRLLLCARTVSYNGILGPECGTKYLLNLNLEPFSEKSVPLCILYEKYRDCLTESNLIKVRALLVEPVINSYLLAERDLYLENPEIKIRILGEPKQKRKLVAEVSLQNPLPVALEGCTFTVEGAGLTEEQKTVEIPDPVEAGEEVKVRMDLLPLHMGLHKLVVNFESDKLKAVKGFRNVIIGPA
Protocol: Confirmation using ELISA: An independent ELISA validated inhibition of TG2/FN complex formation by SMIs^11. The ELISA assay measured the binding between His6-TG2 captured to the wells by anti-His antibodies and biotinylated FN42 detectable with streptavidin-HRP (FIG. 12A). […] Selected compounds (at concentrations between 5 and 10 μM) inhibited the ELISA signal by 29.7% to 69.5%^11.
ELISA measured the interaction between recombinant His tagged TG2 (rTG2-His) and the biotinylated 42 kD fragment of FN (FN42) which were expressed and purified, as previously described (Yakubov et al., 2014). Briefly, a mixture of 10 nMrTG2-His and selected SMIs or DMSO was added to 96 well plates pre-coated with monoclonal anti-His antibody (Roche, Indianapolis, Ind.; 1:6000). The mixture was incubated for 1 h at RT with 5 nM biotinylated FN42. After washing, wells were incubated with streptavidin-HRP (Cell Signaling, #3999; 1:2000). The reaction was developed with 3,3′,5,5′tetramethylbenzidine (TMB) substrate (BD Biosciences, #555214) and the optical density at […] was measured by using a BioTek microplate reader (Winooski, Vt., USA). Data shown are means±SEM of two independent experiments (n=6).

[4] = test system: SKOV3 cells adhesion onto LP9 monolayers; assay: Cell adhesion to LP9 mesothelial monolayers, SKOV3; type: cell-based; settings: 25 μM
Protocol: as §2

[5] = test system: FAK phosphorylation in SKOV3 cells; assay: Western blotting, FAK phosphorylation dose response; type: cell-based; settings: increasing doses (TG53 8 to 16 μM), 2 hours after adhesion to FN
Protocol: FIG. 33. Dose response effects induced by TG2-FN inhibitors on FAK phosphorylation.
Lysates were separated by SDS-PAGE, transferred onto PVDF membranes (Bio-Rad), incubated with primary and secondary antibodies and developed by using SuperSignal™ West Femto Maximum Sensitivity Substrate and Pierce™ ECL Western Blotting Substrate, respectively (Thermo Scientific). Images were obtained by using the ImageQuant LAS 4000 mini-imager (GE Healthcare, Pittsburgh, Pa.). Densitometry analysis was performed using Quantity One software (Bio-Rad) and results were normalized to GAPDH loading controls. DMSO 0 min time point was considered as 1 for comparative analysis.

Structure (SMILES) | solubility at 1 h (Solubility assay) | unattached OC cells recovered from the peritoneal cavity (SKOV3-GFP cells) | unattached OC cells recovered from the peritoneal cavity (SKOV3-GFP cells; listed as MT6) | adhesion of cancer cells to the peritoneum (SKOV3-GFP cells; nude mice, i.p., 2 hours) | motility (scratch repair) (SKOV3 cells) | motility (scratch repair) (OVCAR5 cells) | OVCAR433 adhesion to the LP9 layer [1] | OC cells' adhesion to FN [2] | inhibition of rTG2-FN42 interaction relative to TG53 [3] | SKOV3 cell binding to the mesothelial layer [4] | FAK phosphorylation [5]
Cc1cc(N(C)C)nc(Nc2ccc(NC(=O)c3cccc(Br)c3)cc2)n1 [MT-6] | 6.4 µM | attached less efficiently | Increased numbers | prevented the adhesion | inhibited | inhibited | dose-dependent inhibitory effect | potently blocked | slightly more potently than TG53 |  | 
Cc1cc(N(C)C)nc(Nc2ccc(NC(=O)c3ccc4ccccc4c3)cc2)n1 [MT-5] |  |  |  |  | inhibited | inhibited | dose-dependent inhibitory effect | potently blocked | slightly more potently than TG53 | significantly decreased | dose-dependent inhibition
Cc1cc(N(C)C)nc(Nc2ccc(NC(=O)c3ccc(Cl)c(Cl)c3)cc2)n1 [MT-3] |  |  |  |  |  |  |  |  | slightly more potently than TG53 |  | 
COc1cccc(C(=O)Nc2ccc(Nc3nc(C)cc(N(C)C)n3)cc2)c1 [MT-2] |  |  |  |  |  |  |  | potently blocked |  |  | 
